Laboratory results published in ChEMBL document CHEMBL1201862, “PubChem BioAssay data set” (2004).
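These data come from cells grown in 96-well plates and exposed to compound for 48 hours at five concentrations. The concentration for 50% growth inhibition is given as GI50.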 Activity calls are given as the source filed them. Cut-off read from the data, not from the text of the source: active = GI50 up to about 1.1 µM and inactive = higher.

Key:
Experiment in all cases: DTP human tumour cell line panel, 48 h
A549 = system: A549
EKVX = system: EKVX
HCT-116 = system: HCT-116
HL-60 = system: HL-60
HT-29 = system: HT-29
LOX IMVI = system: LOX IMVI
MOLT-4 = system: MOLT-4
NCI-H460 = system: NCI-H460
OVCAR-8 = system: OVCAR-8
SF-268 = system: SF-268
SF-295 = system: SF-295
SK-MEL-28 = system: SK-MEL-28
SN12C = system: SN12C
SNB-19 = system: SNB-19
TK-10 = system: TK-10
UO-31 = system: UO-31
A498 = system: A498
HCT-15 = system: HCT-15

| SMILES | GI50 (A549) | GI50 (EKVX) | GI50 (HCT-116) | GI50 (HL-60) | GI50 (HT-29) | GI50 (LOX IMVI) | GI50 (MOLT-4) | GI50 (NCI-H460) | GI50 (OVCAR-8) | GI50 (SF-268) | GI50 (SF-295) | GI50 (SK-MEL-28) | GI50 (SN12C) | GI50 (SNB-19) | GI50 (TK-10) | GI50 (UO-31) | GI50 (A498) | GI50 (HCT-15) [µM] |
| --- | --- | --- | --- | --- | --- | --- | --- | --- | --- | --- | --- | --- | --- | --- | --- | --- | --- | --- |
| COC(=O)/C(C#N)=C1\CCC(O)N1C (centres undefined) | > 100 µM (inactive) | > 100 µM (inactive) | > 100 µM (inactive) | > 100 µM (inactive) | > 100 µM (inactive) | > 100 µM (inactive) | > 100 µM (inactive) | > 100 µM (inactive) | > 100 µM (inactive) | > 100 µM (inactive) | > 100 µM (inactive) | > 100 µM (inactive) | > 100 µM (inactive) | > 100 µM (inactive) | > 100 µM (inactive) | > 100 µM (inactive) |  |  |
| N=S(c1ccccc1[N+](=O)[O-])c1ccccc1[N+](=O)[O-] | 6.67 µM (inactive) | 7.73 µM (inactive) | 1.5 µM (inactive) |  |  | 0.944 µM (active) | 2.61 µM (inactive) |  | 3.65 µM (inactive) | 2.37 µM (inactive) |  | 3.7 µM (inactive) | 1.72 µM (inactive) | 8.07 µM (inactive) | 2.69 µM (inactive) | 3.08 µM (inactive) | 16.6 µM (inactive) | 1.62 |
| CC1CCCCc2nc3c(c(=O)n21)CCCC3 (centres undefined) | > 100 µM (inactive) |  | > 100 µM (inactive) |  | > 100 µM (inactive) | > 100 µM (inactive) | > 100 µM (inactive) | > 100 µM (inactive) | 63.2 µM (inactive) | > 100 µM (inactive) | > 100 µM (inactive) | > 100 µM (inactive) | > 100 µM (inactive) | > 100 µM (inactive) | > 100 µM (inactive) | > 100 µM (inactive) |  | > 100 |
| N#CNC1=NC(CCCC(=O)Nc2cccc([N+](=O)[O-])c2)=C(c2nc3ccccc3[nH]2)C(N)N1 (centres undefined) | > 100 µM (inactive) | > 100 µM (inactive) |  | > 100 µM (inactive) | > 100 µM (inactive) | > 100 µM (inactive) | > 100 µM (inactive) | > 100 µM (inactive) | > 100 µM (inactive) | > 100 µM (inactive) | > 100 µM (inactive) | > 100 µM (inactive) | > 100 µM (inactive) | > 100 µM (inactive) | > 100 µM (inactive) | > 100 µM (inactive) |  | 76.7 |
| CCCCC1=CSC(c2ccccc2)=C(c2ccccc2)S1 | 64.1 µM (inactive) | > 100 µM (inactive) | 6.46 µM (inactive) |  | 33.6 µM (inactive) | 20.1 µM (inactive) | 8.97 µM (inactive) | 53.1 µM (inactive) | 73.8 µM (inactive) |  | 36.5 µM (inactive) | 63.5 µM (inactive) | 97.5 µM (inactive) | 43.3 µM (inactive) | > 100 µM (inactive) | > 100 µM (inactive) | > 100 µM (inactive) | 26.2 |
| Cc1cc(Cl)ccc1/N=C1/NC(=O)C(CC(=O)Nc2cccc(C)c2C)S1 (centres undefined) | 32 µM (inactive) | 37.8 µM (inactive) |  |  | 37.8 µM (inactive) | 22.3 µM (inactive) | 24.5 µM (inactive) | 31.3 µM (inactive) | 26.5 µM (inactive) | 26 µM (inactive) | 28 µM (inactive) | 30.2 µM (inactive) | 25.9 µM (inactive) | 26.8 µM (inactive) | 39.3 µM (inactive) | 21.6 µM (inactive) | 16.9 µM (inactive) | 28.4 |
| CC1Cc2c(N)nc(N3CCOCC3)nc2NC1=O (centres undefined) | > 100 µM (inactive) | > 100 µM (inactive) | > 100 µM (inactive) | > 100 µM (inactive) | > 100 µM (inactive) | > 100 µM (inactive) | > 100 µM (inactive) | > 100 µM (inactive) | > 100 µM (inactive) |  | > 100 µM (inactive) | > 100 µM (inactive) | > 100 µM (inactive) | > 100 µM (inactive) | > 100 µM (inactive) | > 100 µM (inactive) |  | > 100 |
